In ChEMBL document CHEMBL5729557, “5-membered heteroaryl carboxamide compounds for treatment of HBV” (2023):

Test: Assay Measuring Activity of Test Compounds on Viral Production from HepAD38 Cells: HepAD38 cells grown in a T-150 flask (Corning, cat #: 430825) with Growth Medium (DMEM/F12 (1:1) (Hyclone, cat #: SH30023.02), 1× Pen/Strep (Invitrogen, cat #: 15140-122), 10% FBS (Tissue Culture Biologics, cat #: 101), 250 μg/mL G418 (Alfa Aesar, cat #: J62671), 1 μg/mL Tetracycline (Teknova, cat #: T3320)) were detached with 0.25% trypsin-EDTA to (Invitrogen, cat #: 25200-056). Tetracycline-free treatment medium (15 mL DMEM/F12 (1:1) 1× Pen/step, with 2% FBS, Tet-system approved (Clontech, cat #: 631106) were then added to mix, transferred into a 50 ml conical tube (Falcon, cat #: 21008-918,) and spun at 1300 rpm for 5 min. Pelleted cells were then re-suspended/washed with 50 mL of 1×DPBS (Invitrogen, cat #: 14190-136) 2 times and 50 mL treatment medium twice. HepAD38 cells were then re-suspended with 10 mL of treatment medium, syringed and counted. Wells of 96-well clear bottom TC plate (Corning, cat #: 3904,) were seeded at 50,000 cells/well in 180 μL of treatment medium, and 20 μL of either 10% DMSO (Sigma, cat #: D4540) as controls or a 10× solution of test compounds in 10% DMSO in treatment media was added for a final compound concentration starting at 10 μM, and plates were incubated in 5% CO2 incubator at 37° C. for 5 days.Subsequently viral load production was assayed by quantitative PCR (qPCR) of the HBV core sequence. PCR reaction mixture containing forward primers HBV-f 5′-CTGTGCCTTGGGTGGCTTT-3′ (IDT DNA), Reverse primers HBV-r 5′-[…]-3′ (IDT DNA), Fluorescent TaqMan™ Probes HBV-probe 5′-FAM/AGCTCCAAA/ZEN/[…]/3IABkFQ-3′ (IDT DNA), 10 μL/well of PerfeCTa® qPCR ToughMix® (Quanta Biosciences, Cat #: 95114-05K), and 6 μL/well of DEPC water (Alfa Aesar, cat #: J62087) was prepared. […] of supernatant was added to 16 μL of the reaction mixture in a qPCR plate (Applied Biosytems, Cat #: 4309849), sealed with a film (Applied Biosystems, Cat #: 4311971), centrifuged for a few seconds, and subsequently run on an Applied Biosystems VIIA7. The PCR mixture was incubated at 45° C. for 5 min, then 95° C. for 10 min, followed by 40 cycles of 10 seconds at 95° C. and 20 seconds at 60° C. Viral load was quantified against known HBV DNA standards by using ViiA™ 7 Software. Viral load in the supernatant from wells with treated cells were compared against viral load in supernatant from DMSO control wells (>3 per plate). Cell viability assay was performed with CellTiter-Glo Luminescent Cell Viability Assay (Promega, cat #: G7573) with modification. Mixed appropriate amount of CellTiter-Glo (CTG) 1×DPBS in a 1:1 ratio, added 100 uL of the mixture to each well followed completely removal of all supernatant in each well without touching cell surface. Incubated the plate at room temperature for 10 min on an orbital shaker, and then read the plate with a plate reader (TECAN M1000 or Envision).

With `COC(=O)CC1(O)CC2CC(c3nn(C)c(N)c3C(=O)Nc3ccc(F)c(Cl)c3)CC2C1` (stereo unspecified) the EC50 was less than 100 nM and the EC50 (HePAD38) was less than 100 nM.

`Cn1nc([C@@H]2CC[C@H](c3ccccc3)C2)c(C(=O)Nc2ccc(F)c(Cl)c2)c1N` showed an EC50 (HePAD38) of less than 100 nM.

`COCCOc1ccc(C2CCC(c3nn(C)c(N)c3C(=O)Nc3ccc(F)c(Cl)c3)C2)cc1` (stereo unspecified) gave an EC50 (HePAD38) of less than 100 nM.

For `CCOC(=O)CC1CC2CC(c3nn(C)c(N)c3C(=O)Nc3ccc(F)c(Cl)c3)CC2C1` (stereo unspecified), the EC50 (HePAD38) was less than 100 nM.

Work on `Cn1nc(C2CCC(c3ccc(F)cc3)C2)c(C(=O)Nc2ccc(F)c(Cl)c2)c1N` (stereo unspecified) yielded an EC50 (HePAD38) of less than 100 nM.

Molecule `CC(=O)Nc1ccc(C2CCC(c3nn(C)c(N)c3C(=O)Nc3ccc(F)c(Cl)c3)C2)cc1` (stereo unspecified) has an EC50 (HePAD38) of less than 100 nM.

In the case of `CN(C)C(=O)CC1(O)CC2CC(c3nn(C)c(N)c3C(=O)Nc3ccc(F)c(Cl)c3)CC2C1` (stereo unspecified), the EC50 (HePAD38) is reported as less than 100 nM.

With `Cn1nc([C@H]2CC[C@H](c3ccccc3)C2)c(C(=O)Nc2ccc(F)c(Cl)c2)c1N` the EC50 (HePAD38) was “in the range around 5250 nM”.

`Cn1nc(C2CC3CC(C(N)=O)CC3C2)c(C(=O)Nc2ccc(F)c(Cl)c2)c1N` (stereo unspecified) showed an EC50 (HePAD38) of less than 100 nM.

`COC1CC2CC(c3nn(C)c(N)c3C(=O)Nc3ccc(F)c(Cl)c3)CC2C1` (stereo unspecified) gave an EC50 (HePAD38) of less than 100 nM.

With `Cn1nc(C2CC3CC(C)(O)CC3C2)c(C(=O)Nc2ccc(F)c(Cl)c2)c1N` (stereo unspecified) the EC50 (HePAD38) was less than 100 nM.

Molecule `Cn1nc(C2CC3CC(n4cccn4)CC3C2)c(C(=O)Nc2ccc(F)c(Cl)c2)c1N` (stereo unspecified) has an EC50 (HePAD38) of less than 100 nM.

With `Cn1nc(C2CC3CC(O)(CSCCN4CCOCC4)CC3C2)c(C(=O)Nc2ccc(F)c(Cl)c2)c1N` (stereo unspecified) the EC50 (HePAD38) was less than 100 nM.

`COc1cccc([C@H]2CC[C@H](c3nn(C)c(N)c3C(=O)Nc3ccc(F)c(Cl)c3)C2)c1` gave an EC50 (HePAD38) of less than 100 nM.

For `Cn1nc(C2CCC(c3ccccc3)C2)c(C(=O)Nc2cc(F)c(F)c(Br)c2)c1N` (stereo unspecified), the EC50 (HePAD38) was “in the range around 300 nM”.

With `Cn1nc(C2CC3CC(O)(CSCCO)CC3C2)c(C(=O)Nc2ccc(F)c(Cl)c2)c1N` (stereo unspecified) the EC50 (HePAD38) was less than 100 nM.

`Cn1nc(C2CC3CC(C(=O)O)CC3C2)c(C(=O)Nc2ccc(F)c(Cl)c2)c1N` (stereo unspecified) gave an EC50 (HePAD38) of less than 100 nM.

Molecule `Cn1nc(C2CC3CC4(CC3C2)OCCO4)c(C(=O)Nc2ccc(F)c(Cl)c2)c1N` (stereo unspecified) has an EC50 (HePAD38) of less than 100 nM.

In the case of `CCS(=O)(=O)C1CC2CC(c3nn(C)c(N)c3C(=O)Nc3ccc(F)c(Cl)c3)CC2C1` (stereo unspecified), the EC50 (HePAD38) is reported as less than 100 nM.

Molecule `COc1ccc([C@H]2CC[C@H](c3nn(C)c(N)c3C(=O)Nc3ccc(F)c(Cl)c3)C2)cc1` has an EC50 of less than 100 nM and an EC50 (HePAD38) of less than 100 nM.

For `CN(C1CC2CC(c3nn(C)c(N)c3C(=O)Nc3ccc(F)c(Cl)c3)CC2C1)S(C)(=O)=O` (stereo unspecified), the EC50 (HePAD38) was less than 100 nM.

`CCOC(=O)C=C1CC2CC(c3nn(C)c(N)c3C(=O)Nc3ccc(F)c(Cl)c3)CC2C1` (stereo unspecified) gave an EC50 (HePAD38) of less than 100 nM.

In the case of `Cn1cc(-c2ccc([C@H]3CC[C@@H](c4nn(C)c(N)c4C(=O)Nc4ccc(F)c(Cl)c4)C3)cc2)cn1`, the EC50 (HePAD38) is reported as less than 100 nM.

For `CC(N1CC2CC(c3nn(C)c(N)c3C(=O)Nc3ccc(F)c(Cl)c3)CC2C1)C(F)(F)F` (stereo unspecified), the EC50 (HePAD38) was less than 100 nM.

`CC[S+]([O-])C1CC2CC(c3nn(C)c(N)c3C(=O)Nc3ccc(F)c(Cl)c3)CC2C1` (stereo unspecified) showed an EC50 (HePAD38) of less than 100 nM.

Work on `Cn1nc([C@H]2CC[C@@H](c3ccccc3)C2)c(C(=O)Nc2ccc(F)c(Cl)c2)c1N` yielded an EC50 (HePAD38) of less than 100 nM.

`Cn1nc(C2CCC(c3ccccc3)C2)c(C(=O)Nc2ccc(F)c(C#N)c2)c1N` (stereo unspecified) showed an EC50 (HePAD38) of less than 100 nM.

In the case of `Cn1nc(C2CC3CN(C(=O)OC(C)(C)C)CC3C2)c(C(=O)Nc2ccc(F)c(Cl)c2)c1N` (stereo unspecified), the EC50 (HePAD38) is reported as less than 100 nM.

For `CN(C)C(=O)CC1CC2CC(c3nn(C)c(N)c3C(=O)Nc3ccc(F)c(Cl)c3)CC2C1` (stereo unspecified), the EC50 (HePAD38) was less than 100 nM.

Molecule `Cn1nc(C2CC3CC(N4CCOCC4)CC3C2)c(C(=O)Nc2ccc(F)c(Cl)c2)c1N` (stereo unspecified) has an EC50 (HePAD38) of less than 100 nM.

In the case of `Cn1nc([C@@H]2CC3CNC(=O)C[C@H]3C2)c(C(=O)Nc2ccc(F)c(Cl)c2)c1N` (stereo partly specified), the EC50 (HePAD38) is reported as less than 100 nM.

For `CC(C)Oc1ccc(C2CCC(c3nn(C)c(N)c3C(=O)Nc3ccc(F)c(Cl)c3)C2)cc1` (stereo unspecified), the EC50 (HePAD38) was less than 100 nM.

Work on `Cn1nc(C2CC3CCCC3C2)c(C(=O)Nc2ccc(F)c(Cl)c2)c1N` (stereo unspecified) yielded an EC50 (HePAD38) of less than 100 nM.

With `Cn1nc(C2CCC(c3ccc(OC(F)(F)F)cc3)C2)c(C(=O)Nc2ccc(F)c(Cl)c2)c1N` (stereo unspecified) the EC50 (HePAD38) was “in the range around 5250 nM”.

For `Cn1nc(C2CC3CC(CC(N)=O)CC3C2)c(C(=O)Nc2ccc(F)c(Cl)c2)c1N` (stereo unspecified), the EC50 (HePAD38) was less than 100 nM.

With `Cn1nc(C2CC3CN(C(=O)N4CCCC4)CC3C2)c(C(=O)Nc2ccc(F)c(Cl)c2)c1N` (stereo unspecified) the EC50 (HePAD38) was less than 100 nM.

Work on `Cn1nc([C@H]2C[C@@H](c3ccccc3)C2)c(C(=O)Nc2ccc(F)c(Cl)c2)c1N` yielded an EC50 (HePAD38) of less than 100 nM.

For `Cn1nc(C2CC3CC(NS(C)(=O)=O)CC3C2)c(C(=O)Nc2ccc(F)c(Cl)c2)c1N` (stereo unspecified), the EC50 (HePAD38) was less than 100 nM.

Work on `Cn1cc([C@@H]2CC[C@H](c3nn(C)c(N)c3C(=O)Nc3ccc(F)c(Cl)c3)C2)cn1` yielded an EC50 (HePAD38) of less than 100 nM.
